Here are results for four compounds from patent US12570606B2, “Myeloperoxidase imaging agents” (The General Hospital Corporation, priority 2016, dated 2026).

Data set [1] has as its target T1, MPO (Homo sapiens, UniProt P05164).
T1 sequence (P05164 49-745): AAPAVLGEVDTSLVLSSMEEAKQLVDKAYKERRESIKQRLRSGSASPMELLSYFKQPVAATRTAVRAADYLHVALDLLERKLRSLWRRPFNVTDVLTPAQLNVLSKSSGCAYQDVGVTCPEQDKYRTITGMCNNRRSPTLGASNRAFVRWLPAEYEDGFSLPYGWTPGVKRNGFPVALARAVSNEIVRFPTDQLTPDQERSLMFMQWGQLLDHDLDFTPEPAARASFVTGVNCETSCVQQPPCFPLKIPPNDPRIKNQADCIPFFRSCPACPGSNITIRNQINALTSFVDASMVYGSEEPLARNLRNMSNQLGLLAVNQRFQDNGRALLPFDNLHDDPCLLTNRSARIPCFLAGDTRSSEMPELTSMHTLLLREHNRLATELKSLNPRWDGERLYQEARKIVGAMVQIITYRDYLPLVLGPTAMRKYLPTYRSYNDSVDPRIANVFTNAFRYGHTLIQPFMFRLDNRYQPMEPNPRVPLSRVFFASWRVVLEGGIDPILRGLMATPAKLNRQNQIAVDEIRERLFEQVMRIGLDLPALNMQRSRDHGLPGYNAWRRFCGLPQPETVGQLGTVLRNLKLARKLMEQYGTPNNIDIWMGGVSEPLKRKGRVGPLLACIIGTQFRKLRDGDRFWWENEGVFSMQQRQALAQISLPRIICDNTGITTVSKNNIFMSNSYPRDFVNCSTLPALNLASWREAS
Kind of data set: MPO-PET matrigel implantation imaging in mice. The class given is in vivo, mouse. The conditions noted are these: for Background, organ uptake and defluorination: matrigel PET imaging in mice. The protocol:
300 μL of 1:1 mixture of matrigel and minimal essential medium (MEM) containing GOX and/or different concentrations of MPO (0, 15 μL, 30 μL) was injected subcutaneously into the ventral aspect of the thighs of the mouse. After 30 min, 300-600 μCi of MPO Compound 9 was injected intravenously. After 2 h, the mice were scanned using PET scanning.
To validate the efficacy of the MPO PET agents for in vivo applications, matrigel implantation experiments were performed by embedding MPO in matrigel along with glucose oxidase (GOX) as H2O2 donor. Matrigel is a gelatinous protein mixture that is liquid at 0° C. but forms a gel at body temperature while remaining diffusible to molecules from the bloodstream when injected into living animals (see e.g., Chen et al, Radiology, 2006, 240(2):473-481). The MPO/matrigel mixtures were injected subcutaneously to the thighs of the mice followed by injection of the MPO PET tracers 30 min later. […] The signal of MPO side was around 1.7 fold higher compared to that of control side.
To verify the specificity of Compound 9 over MPO, different concentrations of MPO (0, 15 μL, 30 μL) were embedded in matrigel for the implantation experiments.

Another data set deals with MPO activity. Kind of data set: Irritant contact dermatitis (PMA) in vivo FRI. Details: species or system mouse. The conditions noted are these: wildtype mice. As for the experimental part: Female C57Bl/6J (wildtype, Jackson laboratories, Bar Harbor, Me.) and MPO-knockout (KO, Jackson laboratories) mice were treated topically with 0.08 μmol Phorbol 12-myristate 13-acetate (PMA, Sigma, St. Louis, Mo.) on one hind-paw and with vehicle on the other to induce irritant contact dermatitis. This model is well described in the literature and triggers rapid inflammation with influx of neutrophils into the skin. 6 hours after induction, mice were injected intravenously with either 2 nmol of Compound 3 or the non-specific analogue, Compound 18. 1 hour later, 2.5 μg SA-647 was injected intravenously to bind to the biotinylated Compound 3. Mice underwent in vivo imaging using a dedicated in vivo FRI system as described above in Example 11.

The target of data set [2] is T2, MPO (Mus musculus, UniProt P11247).
T2 sequence (P11247 139-718): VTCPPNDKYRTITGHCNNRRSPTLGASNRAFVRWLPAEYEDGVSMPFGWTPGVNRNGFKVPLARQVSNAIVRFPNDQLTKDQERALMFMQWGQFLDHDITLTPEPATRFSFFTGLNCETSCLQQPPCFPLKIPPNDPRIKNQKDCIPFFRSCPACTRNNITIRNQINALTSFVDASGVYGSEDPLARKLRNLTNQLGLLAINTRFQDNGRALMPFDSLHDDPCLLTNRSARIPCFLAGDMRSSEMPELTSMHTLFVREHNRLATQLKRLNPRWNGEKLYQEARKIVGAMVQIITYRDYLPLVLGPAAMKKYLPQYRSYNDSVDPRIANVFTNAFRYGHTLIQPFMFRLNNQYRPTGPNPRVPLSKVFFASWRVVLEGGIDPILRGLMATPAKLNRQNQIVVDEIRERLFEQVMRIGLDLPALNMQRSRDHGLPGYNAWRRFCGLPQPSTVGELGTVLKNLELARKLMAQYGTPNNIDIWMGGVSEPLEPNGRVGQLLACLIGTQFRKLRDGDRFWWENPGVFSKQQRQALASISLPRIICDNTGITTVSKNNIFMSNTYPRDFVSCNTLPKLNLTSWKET
As to the kind of experiment: CFA paw inflammation PET imaging and treatment by MPO inhibitor PF-1355. The format is in vivo. The arrangement: from tissue; host or cells: inflamed forepaw of living mice (CFA). As for the experimental part:
Each pair contained one treated and one untreated, number of pairs, n=3. The 1/1 emulsion of CFA/PBS (40 μL) was injected subcutaneously on the dorsal side of one forepaw under isoflurane anesthesia, and PBS (40 μL) was injected on the other forepaw as control. After 1 h, the treated group was given PF-1355 (50 mg/kg) by gavage, then treated every 6 h for another 3 times, and the control group was treated with vehicle (10 mL/kg) accordingly. After 24 h, 300-600 uCi of Compound 9 was injected intravenously. After another 2 h, each pair of the mice was scanned side by side.
After validating the efficacy of the MPO Compound 9 in matrigel experiments, the specificity of the agent in inflammation was investigated. Complete Freund's Adjuvant (CFA) or its emulsion can cause inflammation when injected subcutaneously to the animal. The CFA emulsion was injected to one dorsal side of the forepaw of the mouse and the other side was injected with PBS. After 24 h, Compound 9 was injected intravenously and scanned 2 h after injection. […] To further verify the specificity of the MPO Compound 9, the mice were treated with MPO inhibitor PF-1355 1 h after CFA emulsion injection and continuously every 6 h afterwards for 4 times before injecting the Compound 9. The control group was treated with vehicle after CFA injection. Then each pair of the mice from treated and untreated groups were scanned.

On to `O=C(Cc1c[nH]c2ccc(O)cc12)NC(Cc1c[nH]c2ccc(O)cc12)C(=O)NCCCCCC[18F]` (centres unmarked) [Compound 5], for which the “Background, organ uptake and defluorination” value on MPO [1] is “high heart and liver uptake and high background were observed from defluorination”.

On to `O=C(NC(Cc1c[nH]c2ccc(O)cc12)C(=O)NCCc1c[nH]c2ccc(O)cc12)c1ccc([18F])cc1` (centres unmarked) [Compound 7], for which the “PET signal of MPO side” value at MPO [1] (matrigel MPO thigh vs control thigh) is listed as “low signal”. In addition, on MPO [1], the “Background, organ uptake and defluorination” value is listed as “high heart uptake”.

For `O=C(CCCC[C@@H]1SC[C@@H]2NC(=O)N[C@@H]21)N[C@@H](Cc1c[nH]c2ccccc12)C(=O)NCCc1c[nH]c2ccccc12` [Compound 18, N—((S)-1-((2-(1H-indol-3-yl)ethyl)amino)-3-(1H-indol-3-yl)-1-oxopropan-2-yl)-5-((3aS,4S,6aR)-2-oxohexahydro-1H-thieno[3,4-d]imidazol-4-yl)pentanamide], in the data set with MPO activity, the “Fluorescence intensity, PMA-treated hind-paw” value was found to be 50.1±5.8 RFU and the “Fluorescence intensity, vehicle-treated hind-paw” value was 28.4±5.5 RFU.

Consider `COc1ccc(OC)c(-c2cc(=O)[nH]c(=S)n2CC(N)=O)c1` [PF-1355], for which the “Ratio of PF-1355 treated to untreated” value on MPO [2] (mean of three pairs) is listed as “.410”. On MPO [2] (mean of three pairs, PF-1355 50 mg/kg by gavage, Compound 9 PET), the % Inhibition (in general, how much of the control response was suppressed) is 59%. Further, the “Compound 9 uptake in inflamed paw, PF-1355 treated” value on MPO [2] (mean of three pairs, PF-1355 50 mg/kg by gavage) is “.0622 SUV”; on MPO [2] (mouse pair 1, PF-1355 50 mg/kg by gavage), “.0555 SUV”; at MPO [2] (mouse pair 2, PF-1355 50 mg/kg by gavage), “.0736 SUV”; on MPO [2] (mouse pair 3, PF-1355 50 mg/kg by gavage) it was “.0575 SUV”.
